Where a name gives a salt, the structure may show the parent alone. Read-outs that look alike come from different tables or passages of the source.
Columns and labels:
rLUJV/ZsG = test: microbe, parasite or virus in culture; type: cell-based, Lujo virus; details: for activity at 0.05 µM / activity at 0.5 µM / activity at 5 µM: Huh-7, read-out: Relative ZsG (%) Mean
in vitro = details: human; for CC50: CC50 (50% cell cytotoxicity concentration)
wt LUJV = type: cell-based, Lujo virus
Huh7 cells = details: for CC50: human
JUNV [1] = details: cited from earlier work
LASV [2] = details: read-out: EC50 for LASV inhibition; cited from earlier work
JUNV [3] = details: read-out: EC50 reported for JUNV; cited from earlier work
LASV [4] = details: read-out: EC50 reported for LASV; cited from earlier work
[5] = Mammarenavirus lujoense, Huh-7, read-out: EC50 (concentration inhibiting ZsG expression by 50%)
[6] = Mammarenavirus lujoense, 500 nM
[7] = Mammarenavirus lujoense, 5000 nM
[8] = read-out: EC50 (concentration inhibiting ZsG expression by 50%)

Structure (SMILES)	EC50 (rLUJV/ZsG; [5]) [µM]	activity at 0.05 µM (rLUJV/ZsG; Mammarenavirus lujoense, 50 nM) [%]	activity at 0.5 µM (rLUJV/ZsG; [6]) [%]	activity at 5 µM (rLUJV/ZsG; [7]) [%]	EC50 (rLUJV/ZsG; [8]) [µM]	viability at 0.05 µM (in vitro) [%]	viability at 0.5 µM (in vitro) [%]	viability at 5 µM (in vitro) [%]	CC50 (in vitro) [µM]	SI (selectivity index, CC50 divided by EC50) (rLUJV/ZsG)	CC50 (Huh7 cells) [µM]	Relative ZsG (%) Mean (rLUJV/ZsG; 50 nM) [%]	Relative ZsG (%) Mean (rLUJV/ZsG; 500 nM) [%]	Relative ZsG (%) Mean (rLUJV/ZsG; 5000 nM) [%]	Cell Viability (%) Mean (Huh7 cells; 50 nM) [%]	Cell Viability (%) Mean (Huh7 cells; 500 nM) [%]	Cell Viability (%) Mean (Huh7 cells; 5000 nM) [%]	also measured
Nc1ccn([C@@H]2O[C@H](CO)[C@@H](O)[C@H]2F)c(=O)n1 [2′-deoxy-2′-fluorocytidine (2-dFC), 2′-deoxy-2′-fluorocytidine]	0.54 ± 0.21	90	27	2	0.533 ± 0.205	117	98	105	> 50	–	–	–	–	–	–	–	–	viability (in vitro): > 75%; reduction of wt LUJV viral titers (wt LUJV): approximately 4 logs
NCC(=O)Nc1ccc(-n2nc(C(F)(F)F)cc2-c2ccc3c(ccc4ccccc43)c2)cc1 [AR-12]	1.2	74	54	2	1.23 ± 0.444	129	115	1	5.5 ± 1.7	4.5	5.52 ± 1.67	–	–	–	–	–	–	–
CC[C@H](CC#N)OC(=O)N[C@@H](C)c1cccc(NC(=O)Nc2ccc(-c3cnco3)c(OC)c2)c1 [AVN-944]	0.2 ± 0.09	43	4	1	0.201 ± 0.089	103	97	64	> 12.5	–	–	–	–	–	–	–	–	reduction of JUNV titers (JUNV [1]): > 90%; viability (in vitro): > 75%; reduction of wt LUJV viral titers (wt LUJV): approximately 4 logs
CN(C)C/C=C/C(=O)Nc1cc2c(Nc3ccc(F)c(Cl)c3)ncnc2cc1O[C@H]1CCOC1 [Afatinib]	2.26 ± 0.73	76	74	2	2.26 ± 0.734	126	136	60	7.64 ± 0.7	3.4	7.64 ± 0.699	–	–	–	–	–	–	–
Cc1cccc(/C=N/Nc2cc(N3CCOCC3)nc(OCCc3ccccn3)n2)c1 [Apilimod]	1.44 ± 0.6	91	45	24	1.44 ± 0.637	130	115	80	14.4 ± 3.25	–	–	–	–	–	–	–	–	EC50 (LASV [2]): 0.05 µM; viability (in vitro): > 75%; reduction of wt LUJV viral titers (wt LUJV): approximately 4 logs
O=C(NCCCNc1nc(Nc2cccc(NC(=O)N3CCCC3)c2)ncc1I)c1cccs1 [BX-795]	0.6 ± 0.27	80	41	9	0.598 ± 0.274	128	105	60	9.91 ± 1.09	–	9.91 ± 1.09	–	–	–	–	–	–	viability (in vitro): > 75%; reduction of wt LUJV viral titers (wt LUJV): approximately 4 logs
Cc1c(-c2ccc(O)cc2)n(Cc2ccc(OCCN3CCCCCC3)cc2)c2ccc(O)cc12 [Bazedoxifene HCL]	1.72 ± 0.79	110	103	2	1.72 ± 0.481	141	147	84	6.68 ± 2.08	3.9	6.68 ± 2.08	–	–	–	–	–	–	–
Cc1c(-c2ccc(-c3ccccc3F)cc2)nc2ccc(F)cc2c1C(=O)O [Brequinar]	0.11 ± 0.02	27	2	2	0.109 ± 0.015	113	85	67	> 12.5	–	–	–	–	–	–	–	–	viability (in vitro): > 75%; reduction of wt LUJV viral titers (wt LUJV): approximately 4 logs
NC(=O)c1nc(F)c[nH]c1=O [Favipiravir (T-705), Favipiravir]	2.95 ± 0.69	94	95	22	2.95 ± 0.693	101	104	96	> 50	–	–	–	–	–	–	–	–	viability (in vitro): > 75%; reduction of wt LUJV viral titers (wt LUJV): approximately 4 logs
COc1c(C)c2c(c(O)c1C/C=C(\C)CCC(=O)O)C(=O)OC2 [Mycophenolic acid (MPA), Mycophenolic acid]	0.24 ± 0.1	72	7	2	0.238 ± 0.097	132	100	48	2 ± 0.4	8.6	2.04	–	–	–	–	–	–	–
O=C(Nc1ccc([N+](=O)[O-])cc1Cl)c1cc(Cl)ccc1O [Niclosamide]	0.09	30	2	2	0.085 ± 0.029	77	2	1	0.27	3.2	0.272 ± 0.034	–	–	–	–	–	–	EC50 (LASV [2]): 0.08 µM
COC1=CC(c2cc3ccccc3[nH]2)=N/C1=C\c1[nH]c(C)cc1C [Obatoclax]	0.36 ± 0.1	36	4	10	0.355 ± 0.105	130	25	2	1.5 ± 0.33	4.2	1.5 ± 0.332	–	–	–	–	–	–	–
Cl.Fc1ccc([C@@H]2CCNC[C@H]2COc2ccc3c(c2)OCO3)cc1 [Paroxetine HCl]	–	–	–	–	–	–	–	–	–	–	–	93	83	48	138	145	110	–
Cc1ccc(Nc2nccc(N(C)c3ccc4c(C)n(C)nc4c3)n2)cc1S(N)(=O)=O.Cl [Pazopanib HCl]	–	–	–	–	–	–	–	–	–	–	–	77	59	24	134	116	54	–
[N-]=[N+]=N[C@]1(CO)O[C@@H](n2ccc(N)nc2=O)[C@@H](O)[C@@H]1O [R09187]	–	–	–	–	–	–	–	–	–	–	–	116	122	88	99	98	102	–
[N-]=[N+]=N[C@]1(CO)O[C@@H](n2ccc(N)nc2=O)[C@H](O)[C@@H]1O [R-1479]	–	–	–	–	–	–	–	–	–	–	–	118	100	103	104	101	96	–
CC(C)C(=O)OC[C@H]1O[C@@H](n2ccc(N)nc2=O)[C@](C)(F)[C@@H]1OC(=O)C(C)C [R-7128]	–	–	–	–	–	–	–	–	–	–	–	133	80	126	100	98	103	–
O=C(c1ccc(OCCN2CCCCC2)cc1)c1c(-c2ccc(O)cc2)sc2cc(O)ccc12 [Raloxifene (Evista), Raloxifene]	1.5 ± 0.793	87	89	3	–	139	136	86	9.3 ± 1.3	6.2	9.29 ± 1.31	–	–	–	–	–	–	–
NC(=O)c1ncn([C@@H]2O[C@H](CO)[C@@H](O)[C@H]2O)n1 [Ribavirin]	11.1 ± 1.4	94	73	63	–	124	122	133	> 50	–	–	–	–	–	–	–	–	EC50 (JUNV [3]): 18.3 µM; EC50 (LASV [4]): 2.47 µM
COc1ccc(-n2cnc3cc(NCc4ccc(C(C)C)cc4)ccc32)cc1 [ST-193]	–	–	–	–	–	–	–	–	–	–	–	107	102	91	105	98	101	–
Nc1cccc(-c2cc3c(Oc4cccc(O)c4)ncnc3[nH]2)c1 [TWS119]	–	–	–	–	–	–	–	–	–	–	–	74	74	13	135	124	36	–
CC/C(=C(\c1ccccc1)c1ccc(OCCN(C)C)cc1)c1ccccc1 [Tamoxifene citrate]	3.59 ± 0.72	84	78	2	3.59 ± 0.724	123	123	85	7.37 ± 1.04	2.1	7.37 ± 1.04	–	–	–	–	–	–	–
C[C@H](Cn1cnc2c(N)ncnc21)OCP(=O)(O)O [Tenofivir]	–	–	–	–	–	–	–	–	–	–	–	114	138	96	101	100	100	–

From publication PMC8310135 (Viruses, 2021)
